The term pIC50 denotes −log10 of the IC50, conventionally taken in molar units. Higher therefore signals a small IC50.

The text below walks through data of patent US20070197957A1, “Implantable sensors, implantable pumps and anti-scarring drug combinations” (priority 2005, published 2007).

pIC50: −log10 of the molar value. Entries after “also recorded” stand apart in the source; their conditions may differ.

For series [1] the following is noted: in vivo; cited from earlier work.
For series [2], the system named is Primary human smooth muscle cells. The experiment in a line: Smooth muscle cell migration assay (Boyden chamber, rhPDGF-BB chemotaxis). The format is cell-based. Conditions: chemotaxis to rhPDGF-BB 10 ng/ml, 4 hours.
Procedure: Primary human smooth muscle cells were starved of serum in smooth muscle cell basal media containing insulin and human basic fibroblast growth factor (bFGF) for 16 hours prior to the assay. For the migration assay, cells were trypsinized to remove cells from flasks, washed with migration media and diluted to a concentration of 2-2.5×10^5 cells/ml in migration media. […] A 100 μL volume of smooth muscle cells (approximately 20,000-25,000 cells) was added to the top of a Boyden chamber assembly (Chemicon QCM CHEMOTAXIS 96-well migration plate). To the bottom wells, the chemotacetic agent, recombinant human platelet derived growth factor (rhPDGF-BB) was added at a concentration of 10 ng/ml in a total volume of 150 μL. Paclitaxel was prepared in DMSO at a concentration of 10^−2 M and serially diluted 10-fold to give a range of stock concentrations (10^−8 M to 10^−2 M). […]
At the end of the 4 hour period, cells in the top chamber were discarded and the smooth muscle cells attached to the underside of the filter were detached for 30 minutes at 37° C. in Cell Detachment Solution (Chemicon). […] Relative fluorescence units from triplicate wells were averaged after subtracting background fluorescence (control chamber without chemoattractant) and average number of cells migrating was obtained from a standard curve of smooth muscle cells serially diluted from 25,000 cells/well down to 98 cells/well.
For series [3], the system named is Chick Chorioallantoic Membrane (CAM) vasculature. Description: Chick chorioallantoic membrane (CAM) angiogenesis assay. The format is in vivo. Conditions: for Inhibition/n: 48 hours exposure. As to the method:
Fertilized, domestic chick embryos were incubated for 3 days prior to shell-less culturing. In this procedure, the egg contents were emptied by removing the shell located around the air space. The interior shell membrane was then severed and the opposite end of the shell was perforated to allow the contents of the egg to gently slide out from the blunted end. The egg contents were emptied into round-bottom sterilized glass bowls and covered with petri dish covers. These were then placed into an incubator at 90% relative humidity and 3% CO2 and incubated for 3 days.
Ten microliter aliquots of this solution were dried on parafilm for 1 hour forming disks 2 mm in diameter. The dried disks containing paclitaxel were then carefully placed at the growing edge of each CAM at day 6 of incubation. Controls were obtained by placing paclitaxel-free methylcellulose disks on the CAMs over the same time course. After a 2 day exposure (day 8 of incubation) the vasculature was examined with the aid of a stereomicroscope. Liposyn II, a white opaque solution, was injected into the CAM to increase the visibility of the vascular details. The vasculature of unstained, living embryos were imaged using a Zeiss stereomicroscope which was interfaced with a video camera (Dage-MTI Inc., Michigan City, Ind.). […] Image negatives were then made on a graphics recorder (Model 3000; Matrix Instruments, Orangeburg, N.Y.).
The membranes of the 8 day-old shell-less embryo were flooded with 2% glutaraldehyde in 0.1M sodium cacodylate buffer; additional fixative was injected under the CAM. After 10 minutes in situ, the CAM was removed and placed into fresh fixative for 2 hours at room temperature. The tissue was then washed overnight in cacodylate buffer containing 6% sucrose. The areas of interest were postfixed in 1% osmium tetroxide for 1.5 hours at 4° C. The tissues were then dehydrated in a graded series of ethanols, solvent exchanged with propylene oxide, and embedded in Spurr resin. Thin sections were cut with a diamond knife, placed on copper grids, stained, and examined in a Joel 1200EX electron microscope. Similarly, […] sections were cut and stained with […] for light microscopy.
At day 11 of development, chick embryos were used for the corrosion casting technique. Mercox resin (Ted Pella, Inc., Redding, Calif.) was injected into the CAM vasculature using a 30-gauge hypodermic needle. […] After injection, the plastic was allowed to sit in situ for an hour at room temperature and then overnight in an oven at 65° C. The CAM was then placed in 50% aqueous solution of sodium hydroxide to digest all organic components.
This imaging setup was used at a magnification of 160× which permitted the direct visualization of blood cells within the capillaries; thereby blood flow in areas of interest may be easily assessed and recorded. For this study, the inhibition of angiogenesis was defined as an area of the CAM (measuring 2-6 mm in diameter) lacking a capillary network and vascular blood flow. Throughout the experiments, avascular zones were assessed on a 4 point avascular gradient (Table 11). This scale represents the degree of overall inhibition with maximal inhibition represented as a 3 on the avascular gradient scale.

The next series deals with stromelysin (MMP-3) mRNA. The experiment in a line: IL-1 induced MMP-3 (stromelysin) mRNA expression in chondrocytes, Northern blot.
In series [4] the test system is AP-1 transcriptional activity. The experiment in a line: IL-1 stimulated AP-1 transcriptional activity (AP-1 driven CAT reporter gene) in transfected chondrocytes. Format: cell-based. Conditions: IL-1 50 ng/ml, 24 hours, paclitaxel 10^−7 to 10^−5 M. For orientation: A reporter such as luciferase makes a cellular process visible.
Source text: The results shown are representative of three independent experiments.
The test system of series [5] is collagenase and stromelysin. The experiment in a line: IL-1 induced collagenase and stromelysin RNA levels in chondrocytes. Format: cell-based. Particulars: pretreatment (FIG. 1D).
For series [6], the system named is AP-1 DNA binding activity. Description: IL-1 induced AP-1 DNA binding activity, gel mobility shift assay with chondrocyte extracts. Format: cell-based. Particulars: chondrocyte lysates, pretreated with paclitaxel 10^−7 to 10^−5 M for 24 hours.
Procedure: Binding activity was assayed with a radiolabeled human AP-1 sequence probe and gel mobility shift assay. Extracts from chondrocytes untreated or treated with various amounts of paclitaxel (10^−7 to 10^−5M) followed by IL-1β (20 ng/ml) were incubated with excess probe on ice for 30 minutes, followed by non-denaturing gel electrophoresis. The “com” lane contains excess unlabeled AP-1 oligonucleotide. The results shown are representative of three independent experiments.
A further series has as its system AP-1. Description: IL-1 induced AP-1 binding activity in chondrocyte lysates. Format: cell-based. Particulars: lysates from chondrocytes pretreated with the agent (FIG. 1C).
Another series has as its system collagenase (MMP-1) mRNA. Description: IL-1 induced MMP-1 (collagenase) mRNA expression in chondrocytes, Northern blot.
The conditions of series [7]: water; cited from earlier work.
The conditions of series [8]: 200 mg/day orally; cited from earlier work.
The mark [9] stands for this setting: within 48 hours, depending on concentration.
[10] abbreviates: 10^−5 M paclitaxel, 24 hours pretreatment.
Setting [11] is: chondrocytes pretreated with paclitaxel for 24 hours.

`CN(C)/N=N/c1[nH]cnc1C(N)=O` [Dacarbazine, dacarbazine]: the “absorption from the GI tract” value in [1] is given as “poorly absorbed”.

`CC(=O)O[C@H]1C(=O)[C@@]2(C)[C@H]([C@H](OC(=O)c3ccccc3)[C@]3(O)C[C@H](OC(=O)[C@H](O)[C@@H](NC(=O)c4ccccc4)c4ccccc4)C(C)=C1C3(C)C)[C@]1(OC(C)=O)CO[C@@H]1C[C@@H]2O` [paclitaxel]: the pIC50 in series [2] is 9.12. The Inhibition/n in series [3] (0.25 ug in methylcellulose (10 ul) disk) is on record as 2/11; in [3] (0.5 ug in methylcellulose (10 ul) disk), 6/11; in [3] (1 ug in methylcellulose (10 ul) disk) it was 6/15; in [3] (5 ug in methylcellulose (10 ul) disk) it was 20/27; in series [3] (10 ug in methylcellulose (10 ul) disk), 16/21; in series [3] (30 ug in methylcellulose (10 ul) disk), 31/31. In addition, the “angiogenesis in the CAM” value in series [3] (48 hours after application to the CAM) is on record as “inhibited”. Further, the “avascular gradient scale, maximal avascular zone” value in series [3] (setting [9]) is recorded as 3. Also, in series [3] (setting [9]), the “maximal avascular zone diameter” value amounted to 6 mm. In addition, the “inhibition of stromelysin mRNA expression” value with stromelysin (MMP-3) mRNA (setting [10]) is “complete inhibition”. Moreover, the “stromelysin mRNA levels, IL-1 induced” value in the series on stromelysin (MMP-3) mRNA (setting [11]) is “significantly reduced”. In the series with stromelysin (MMP-3) mRNA (chondrocytes, IL-1 induced), the “concentration inhibiting stromelysin expression in vitro” value is 10^−6 M. Moreover, the “IL-1 induced AP-1 reporter gene CAT activity” value in [4] is “decreased CAT activity in a concentration dependent manner; also recorded: reduced IL-1 induced AP-1 reporter gene CAT activity”. Besides, the “IL-1 induction of collagenase and stromelysin RNA levels” value in series [5] was “inhibited”. Moreover, the “IL-1 induced AP-1 binding activity to oligonucleotides” value in series [6] is given as “decreased”. Further, in the series on AP-1, the “IL-1 induced binding activity” value is recorded as “decreased”. Also, the “inhibition of collagenase mRNA expression” value in the series on collagenase (MMP-1) mRNA (setting [10]) is listed as “complete inhibition”. Besides, the “collagenase mRNA levels, IL-1 induced” value in the series with collagenase (MMP-1) mRNA (setting [11]) is reported as “significantly reduced”. For the same compound, the “concentration inhibiting collagenase expression in vitro” value with collagenase (MMP-1) mRNA (chondrocytes, IL-1 induced) was 10^−6 M.

Take `CC(=O)N1CCN(c2ccc(OCC3COC(Cn4ccnc4)(c4ccc(Cl)cc4Cl)O3)cc2)CC1` (centres unmarked) [ketoconazole]: the “solubility in water” value in series [7] is recorded as “essentially insoluble in water”. In addition, the serum concentration result in series [8] is given as “about 3.2 micrograms”.
